# Experimental data: patent publication US20060069132A1, “Azolecarboxamide herbicides” (priority 2004, published 2006)
# Tests used:
# lambsquarters = test: Test B pre-/postemergence herbicide test; type: in vivo, Chenopodium album; details: for Plant response rating, Lambsquarters: preemergence; for Lambsquarters plant response rating: postemergence, visual rating, scale 0 (no effect) to 100 (complete control)
# Procedure, shortened: (§1)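 Pre: seeds sown, then sprayed. Post: 1–4-leaf plants (2–18 cm) sprayed at the same time. Paddy: flooded, treated at 2-leaf stage. Formulation: non-phytotoxic solvent with surfactant. Greenhouse 13–15 days; visual 0–100 score relative to controls.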
# barnyardgrass [1] = test: Test A pre-/postemergence herbicide test; type: in vivo, Echinochloa crus-galli
# Procedure, shortened: (§2)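 Greenhouse injury scoring (0–100, complete control = 100) at approximately ten days follows simultaneous pre- and postemergence application. Soil received a directed spray after seeding; seedlings of 2–10 cm at the one- to two-leaf stage were sprayed to runoff.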
# wheat = test: Test B postemergence herbicide test; type: in vivo, Triticum aestivum; set-up: key to Wheat plant response rating: 0 = no effect, 100 = complete control; details: postemergence, visual rating, scale 0 (no effect) to 100 (complete control)
# Procedure, shortened: (§3)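 Read-out: visual comparison with controls, scored 0 to 100, where 100 means complete control and 0 no effect. Formulated chemicals were applied postemergence to plants 2–18 cm tall (1- to 4-leaf), or to flooded-paddy plants at the 2-leaf stage, then held 13 to 15 days under glass.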
# velvetleaf [2] = test: Test A pre-/postemergence herbicide test; type: in vivo, Abutilon theophrasti
# Procedure, shortened: as §2
# rice [3] = test: Test B pre-/postemergence herbicide test; type: in vivo, Oryza sativa; details: preemergence, 125 g ai/ha; 0 to 100 scale, 0 is no effect, 100 is complete control
# Procedure, shortened: as §1
# giant foxtail [4] = test: Test B pre-/postemergence herbicide test; type: in vivo, Setaria faberi; details: for Plant response rating, Foxtail, Giant: preemergence; for Foxtail, Giant plant response rating: postemergence, visual rating, scale 0 (no effect) to 100 (complete control)
# Procedure, shortened: as §1
# corn = test: Test B pre-/postemergence herbicide test; type: in vivo, Zea mays; details: for Plant response rating, Corn: preemergence; for Corn plant response rating: postemergence, visual rating, scale 0 (no effect) to 100 (complete control)
# Procedure, shortened: as §1
# wild oat = test: Test B postemergence herbicide test; type: in vivo, Avena fatua; details: postemergence, visual rating, scale 0 (no effect) to 100 (complete control)
# Procedure, shortened: as §3
# ducksalad = test: Test B flooded paddy test; type: in vivo, Heteranthera limosa; details: 1000 g ai/ha, visual rating, scale 0 to 100 (0 no effect, 100 complete control), 13 to 15 days
# Procedure, shortened: (§4)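 Scale 0–100: zero equals no visible effect, 100 complete control, judged by eye relative to controls. Timing: 13 to 15 days in greenhouse post-treatment. Growth stage at spraying: two leaves (paddy) or one to four leaves, 2–18 cm (postemergence).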
# large crabgrass [5] = test: Test B pre-/postemergence herbicide test; type: in vivo, Digitaria sanguinalis; details: for Plant response rating, Crabgrass, Large: preemergence; for Crabgrass, Large plant response rating: postemergence, visual rating, scale 0 (no effect) to 100 (complete control)
# Procedure, shortened: as §1
# morningglory [6] = test: Test A pre-/postemergence herbicide test; type: in vivo, Ipomoea spp.
# Procedure, shortened: as §2
# blackgrass = test: Test B postemergence herbicide test; type: in vivo, Alopecurus myosuroides; details: postemergence, visual rating, scale 0 (no effect) to 100 (complete control)
# Procedure, shortened: as §4
# velvetleaf [7] = test: Test B pre-/postemergence herbicide test; type: in vivo, Abutilon theophrasti; details: for Plant response rating, Velvetleaf: preemergence; for Velvetleaf plant response rating: postemergence, visual rating, scale 0 (no effect) to 100 (complete control)
# Procedure, shortened: as §1
# Surinam grass = test: Test B pre-/postemergence herbicide test; type: in vivo, Urochloa decumbens; details: for Plant response rating, Surinam Grass: preemergence; for Surinam Grass plant response rating: postemergence, visual rating, scale 0 (no effect) to 100 (complete control)
# Procedure, shortened: as §1
# redroot pigweed = test: Test A pre-/postemergence herbicide test; type: in vivo, Amaranthus retroflexus
# Procedure, shortened: as §2
# large crabgrass [8] = test: Test A pre-/postemergence herbicide test; type: in vivo, Digitaria sanguinalis
# Procedure, shortened: as §2
# giant foxtail [9] = test: Test A pre-/postemergence herbicide test; type: in vivo, Setaria faberi
# Procedure, shortened: as §2
# barnyardgrass [10] = test: Test B flooded paddy test; type: in vivo, Echinochloa crus-galli; details: 1000 g ai/ha, visual rating, scale 0 to 100 (0 no effect, 100 complete control), 13 to 15 days
# Procedure, shortened: as §4
# [11] = test system: small flower umbrella sedge; test: Test B flooded paddy test; type: in vivo, Cyperus difformis; details: 1000 g ai/ha, visual rating, scale 0 to 100 (0 no effect, 100 complete control), 13 to 15 days
# Procedure, shortened: as §4
# barnyardgrass [12] = test: Test B pre-/postemergence herbicide test; type: in vivo, Echinochloa crus-galli; details: for Plant response rating, Barnyardgrass: preemergence; for Barnyardgrass plant response rating: postemergence, visual rating, scale 0 (no effect) to 100 (complete control)
# Procedure, shortened: (§5)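 Formulation: non-phytotoxic solvent mix with surfactant. Timing: preemergence on seed and postemergence on 2–18 cm plants, applied concurrently. Readout after 13–15 d greenhouse: visual 0–100 control rating against controls.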
# rice [13] = test: Test B flooded paddy test; type: in vivo, Oryza sativa; details: 1000 g ai/ha, visual rating, scale 0 to 100 (0 no effect, 100 complete control), 13 to 15 days
# Procedure, shortened: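 Plants grow to 1- to 4-leaf stage (2–18 cm) for postemergence spraying, or to 2-leaf stage for the paddy test. Formulated compound is applied. Greenhouse holding lasts 13–15 days. Response is scored visually relative to controls, 0 no effect to 100 complete control; a dash means no result.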
# pigweed = test: Test B pre-/postemergence herbicide test; type: in vivo, Amaranthus retroflexus; details: for Plant response rating, Pigweed: preemergence; for Pigweed plant response rating: postemergence, visual rating, scale 0 (no effect) to 100 (complete control)
# Procedure, shortened: as §1
# cocklebur = test: Test B pre-/postemergence herbicide test; type: in vivo, Xanthium strumarium; details: for Plant response rating, Cocklebur: preemergence; for Cocklebur plant response rating: postemergence, visual rating, scale 0 (no effect) to 100 (complete control)
# Procedure, shortened: as §5
# morningglory [14] = test: Test B pre-/postemergence herbicide test; type: in vivo, Ipomoea coccinea; details: for Plant response rating, Morningglory: preemergence; for Morningglory plant response rating: postemergence, visual rating, scale 0 (no effect) to 100 (complete control)
# Procedure, shortened: as §5
# [15] = 500 g ai/ha, visual rating 0-100, 0 no effect, 100 complete control
# [16] = 125 g ai/ha, 0 to 100 scale, 0 is no effect, 100 is complete control
# [17] = Postemergence, 500 g ai/ha, 0 to 100 scale, 0 no effect, 100 complete control
# [18] = Postemergence, 2000 g ai/ha, 0 to 100 scale, 0 no effect, 100 complete control
# [19] = Preemergence, 500 g ai/ha, visual rating, 0 to 100 scale (0 no effect, 100 complete control)
# [20] = Preemergence, 2000 g ai/ha, visual rating, 0 to 100 scale (0 no effect, 100 complete control)
# [21] = preemergence, 500 g ai/ha, visual injury, 0 to 100 scale (0 no effect, 100 complete control)
compound,measurement,setting,value
CC(=O)c1cc(NC(=O)c2cc(C(C)(C)C)nn2C)ccc1F [Compound 123],"Plant response rating, Lambsquarters",lambsquarters; [15],0
same,Lambsquarters plant response rating,lambsquarters; 125 g ai/ha,0
same,Lambsquarters plant response rating,lambsquarters; 500 g ai/ha,0
same,"Plant response rating, Lambsquarters",lambsquarters; [16],0
same,Barnyardgrass plant response rating,barnyardgrass [1]; [17],5
same,"Plant response rating, Barnyardgrass",barnyardgrass [1]; [18],20
same,Barnyardgrass plant response rating,barnyardgrass [1]; [19],5
same,Barnyardgrass plant response rating,barnyardgrass [1]; [20],50
same,Wheat plant response rating,wheat; 125 g ai/ha,0
same,Wheat plant response rating,wheat; 500 g ai/ha,0
same,Velvetleaf plant response rating,velvetleaf [2]; [17],0
same,"Plant response rating, Velvetleaf",velvetleaf [2]; [18],10
same,Velvetleaf plant response rating,velvetleaf [2]; [20],0
same,Velvetleaf plant response rating,velvetleaf [2]; [21],0
same,"Plant response rating, Rice",rice [3],0
same,"Plant response rating, Foxtail, Giant",giant foxtail [4]; [15],0
same,"Foxtail, Giant plant response rating",giant foxtail [4]; 125 g ai/ha,0
same,"Foxtail, Giant plant response rating",giant foxtail [4]; 500 g ai/ha,0
same,"Plant response rating, Foxtail, Giant",giant foxtail [4]; [16],0
same,"Plant response rating, Corn",corn; [15],0
same,Corn plant response rating,corn; 125 g ai/ha,0
same,Corn plant response rating,corn; 500 g ai/ha,0
same,"Plant response rating, Corn",corn; [16],0
same,"Oat, Wild plant response rating",wild oat; 125 g ai/ha,0
same,"Oat, Wild plant response rating",wild oat; 500 g ai/ha,0
same,Ducksalad plant response rating,ducksalad,50
same,"Plant response rating, Crabgrass, Large",large crabgrass [5]; [15],0
same,"Crabgrass, Large plant response rating",large crabgrass [5]; 125 g ai/ha,0
same,"Crabgrass, Large plant response rating",large crabgrass [5]; 500 g ai/ha,0
same,"Plant response rating, Crabgrass, Large",large crabgrass [5]; [16],0
same,Morningglory plant response rating,morningglory [6]; [17],0
same,"Plant response rating, Morningglory",morningglory [6]; [18],10
same,Morningglory plant response rating,morningglory [6]; [19],0
same,Morningglory plant response rating,morningglory [6]; [20],0
same,Blackgrass plant response rating,blackgrass; 125 g ai/ha,0
same,Blackgrass plant response rating,blackgrass; 500 g ai/ha,0
same,"Plant response rating, Velvetleaf",velvetleaf [7]; [15],0
same,Velvetleaf plant response rating,velvetleaf [7]; 125 g ai/ha,0
same,Velvetleaf plant response rating,velvetleaf [7]; 500 g ai/ha,0
same,"Plant response rating, Velvetleaf",velvetleaf [7]; [16],0
same,"Plant response rating, Surinam Grass",Surinam grass; [15],0
same,Surinam Grass plant response rating,Surinam grass; 125 g ai/ha,0
same,Surinam Grass plant response rating,Surinam grass; 500 g ai/ha,0
same,"Plant response rating, Surinam Grass",Surinam grass; [16],0
same,Pigweed plant response rating,redroot pigweed; [17],0
same,"Plant response rating, Pigweed",redroot pigweed; [18],15
same,Pigweed plant response rating,redroot pigweed; [20],0
same,Pigweed plant response rating,redroot pigweed; [21],0
same,"Crabgrass, Large plant response rating",large crabgrass [8]; [17],10
same,"Plant response rating, Crabgrass, Large",large crabgrass [8]; [18],10
same,"Crabgrass, Large plant response rating",large crabgrass [8]; [19],15
same,"Crabgrass, Large plant response rating",large crabgrass [8]; [20],0
same,"Foxtail, Giant plant response rating",giant foxtail [9]; [17],0
same,"Plant response rating, Foxtail, Giant",giant foxtail [9]; [18],10
same,"Foxtail, Giant plant response rating",giant foxtail [9]; [19],0
same,"Foxtail, Giant plant response rating",giant foxtail [9]; [20],0
same,Barnyardgrass plant response rating,barnyardgrass [10],0
same,"Sedge, Umbrella plant response rating",[11],30
same,"Plant response rating, Barnyardgrass",barnyardgrass [12]; [15],0
same,Barnyardgrass plant response rating,barnyardgrass [12]; 125 g ai/ha,0
same,Barnyardgrass plant response rating,barnyardgrass [12]; 500 g ai/ha,0
same,"Plant response rating, Barnyardgrass",barnyardgrass [12]; [16],0
same,Rice plant response rating,rice [13],0
same,"Plant response rating, Pigweed",pigweed; [15],0
same,Pigweed plant response rating,pigweed; 125 g ai/ha,0
same,Pigweed plant response rating,pigweed; 500 g ai/ha,0
same,"Plant response rating, Pigweed",pigweed; [16],0
same,"Plant response rating, Cocklebur",cocklebur; [15],0
same,Cocklebur plant response rating,cocklebur; 125 g ai/ha,0
same,Cocklebur plant response rating,cocklebur; 500 g ai/ha,0
same,"Plant response rating, Cocklebur",cocklebur; [16],0
same,"Plant response rating, Morningglory",morningglory [14]; [15],0
same,Morningglory plant response rating,morningglory [14]; 125 g ai/ha,0
same,Morningglory plant response rating,morningglory [14]; 500 g ai/ha,0
same,"Plant response rating, Morningglory",morningglory [14]; [16],0
